Laboratory results taken from patent publication US11819507B2, “Cholecalciferol sulfate salts and their use for the treatment of vitamin D deficiency” (CFSO GMBH, priority 2015, dated 2023).

Assay: Applying the transdermal formulation of Example 8 to skin; residue on the skin checked by TLC
Format: in vivo
Details: about 2 ml of the formulation of Example 8 applied in a thin layer, allowed to penetrate for 4 hours; skin wiped with 96% ethanol cotton pad, extract examined by TLC
Experimental: About 2 ml of the formulation prepared in Example 8 were applied in a thin layer to the skin of a subject and allowed to penetrate for 4 hours. Subsequently, the skin was well wiped using a sterile cotton pad soaked with 96% ethanol. The cotton pad was boiled with additional 96% ethanol and squeezed. The ethanol was evaporated on a rotary evaporator, and a small amount of chloroform-methanol (9:1 Vol./Vol.) mixture was added to the flask.

SMILES: C=C1CCC(OS(=O)(=O)O)CC1=CC=C1CCCC2(C)C1CCC2C(C)CCCC(C)C.NCCCCC(N)C(=O)O [L-lysine cholecalciferol sulfate]
- L-lysine cholecalciferol sulfate remaining on the skin (TLC on silica gel): substantially no
